Data from PubChem BioAssay (NCI).
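Growth conditions: 96-well plates. Treatment: test compound, 48 hours, 5 concentrations. Analysis: linear interpolation between bracketing concentrations; unreached endpoints set to highest concentration. GI50 is the concentration that inhibits growth by half. TGI marks complete inhibition of growth.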

Columns and labels:
Test in all cases: NCI anticancer screen, dose series, 48 h
[1] = tested on: HS 578T breast
[2] = tested on: BT-549 breast
[3] = tested on: HL-60(TB) leukemia
[4] = tested on: NCI/ADR-RES ovarian
[5] = tested on: CAKI-1 renal
[6] = tested on: MCF7 breast
[7] = tested on: UACC-257 melanoma
[8] = tested on: 786-0 renal
[9] = tested on: MDA-N
[10] = tested on: SNB-19 CNS
[11] = tested on: M14 melanoma

| SMILES | GI50 [1] | TGI [1] [µM] | GI50 [2] | TGI [2] [µM] | GI50 [3] | TGI [3] | GI50 [4] | TGI [4] [µM] | GI50 [5] [µM] | TGI [5] [µM] | GI50 [6] | TGI [6] [µM] | GI50 [7] | TGI [7] [µM] | TGI [8] [µM] | TGI [9] [µM] | TGI [10] [µM] | TGI [11] [µM] | GI50 [10] | GI50 [11] |
| --- | --- | --- | --- | --- | --- | --- | --- | --- | --- | --- | --- | --- | --- | --- | --- | --- | --- | --- | --- | --- |
| COC(=O)C(C)NP(=O)(OCc1cccc(Cn2cnc3c(N)ncnc32)c1)Oc1ccccc1 (stereo not drawn) | 32.8 µM | > 100 | > 100 µM | > 100 | 46.8 µM | > 100 µM | > 100 µM | > 100 | > 100 | > 100 | 14.9 µM | 66.6 | > 100 µM | > 100 | – | – | – | – | – | – |
| Nc1nccc(NCC2(CO)CC(CCc3ccccc3)C2)n1 (stereo not drawn) | – | 52.9 | – | 40.3 | – | 34.4 µM | – | 75.7 | – | 28.6 | – | 22.2 | – | 37.9 | 27.8 | 31.4 | – | – | – | – |
| CC(=O)n1c2ccc(Br)cc2c2nc3ccccc3nc21 | – | – | – | > 100 | – | > 100 µM | – | > 100 | – | > 100 | – | > 100 | – | > 100 | > 100 | > 100 | > 100 | > 100 | – | – |
| Cc1cc2nnn(C3CCCCO3)c2cc1C (stereo not drawn) | – | > 100 | – | > 100 | – | – | – | > 100 | – | > 100 | – | > 100 | – | > 100 | > 100 | > 100 | > 100 | > 100 | – | – |
| O=C(c1c(F)c(F)c(F)c(F)c1F)n1c(=S)n(C(=O)c2c(F)c(F)c(F)c(F)c2F)c2ccccc21 | – | > 100 | – | > 100 | – | 45.6 µM | – | – | – | – | – | > 100 | – | > 100 | > 100 | > 100 | > 100 | > 100 | – | – |
| O=C1/C(=C/c2ccc(Br)s2)NC(=S)N1CN1CCCCC1 | – | > 100 | – | 96.8 | – | 50 µM | – | 98.2 | – | 59.2 | – | 57.8 | – | > 100 | > 100 | > 100 | > 100 | – | – | – |
| COc1cc(Nc2nc3cc(C)ccc3nc2-c2ccccc2)cc(OC)c1OC | – | – | – | – | – | 54.5 µM | – | – | – | > 100 | – | – | – | > 100 | 33.9 | – | > 100 | > 100 | – | – |
| CC(C)(C)OC(=O)CC(NC(=O)OCc1ccccc1)NC(=O)OC(C)(C)C (stereo not drawn) | 85.4 µg/mL | – | 14.2 µg/mL | – | 20.8 µg/mL | 50.7 µg/mL | 33.5 µg/mL | – | – | – | 44.1 µg/mL | – | 35.8 µg/mL | – | – | – | – | – | 76.2 µg/mL | 56.8 µg/mL |
| N/C(CCSCCSCC/C(N)=N\O)=N\O | – | > 100 | – | > 100 | – | > 100 µM | – | > 100 | – | > 100 | – | > 100 | – | – | > 100 | > 100 | > 100 | > 100 | – | – |
| CS(=O)(=O)CCC1CCC(=O)O1 (stereo not drawn) | – | > 100 | – | > 100 | – | > 100 µM | – | > 100 | – | > 100 | – | > 100 | – | > 100 | > 100 | – | > 100 | > 100 | – | – |
| COC(=O)c1sc(=S)sc1SCc1cccc(CSc2sc(=S)sc2C(=O)OC)c1 | – | > 100 | – | 94.1 | – | – | – | > 100 | – | > 100 | – | > 100 | – | > 100 | > 100 | > 100 | 86.3 | > 100 | – | – |
| Fc1ccc2c(c1)SC1=Nc3sc4cc(F)ccc4[n+]3CN12 | – | 38.4 | – | 43.6 | – | 0.184 µM | – | 63.6 | – | 39.3 | – | > 100 | – | 92.1 | 47.4 | – | 38.4 | > 100 | – | – |
| c1ccc(C(NC2=NCCO2)C2CC2)cc1 (stereo not drawn) | – | > 100 | – | – | – | – | – | > 100 | – | – | – | > 100 | – | > 100 | > 100 | > 100 | > 100 | > 100 | – | – |
| CCN(CC)c1ccc(Cl)c2c1C(O)(C(C)C)C2(C)C (stereo not drawn) | – | – | – | – | – | 38.8 µM | – | – | – | 34.2 | – | – | – | 27.6 | 27.7 | – | 28.7 | 30.5 | – | – |
| O=c1[nH]c2ccccc2c2oc3ccccc3c12 | – | > 100 | – | > 100 | – | – | – | > 100 | – | > 100 | – | > 100 | – | > 100 | – | > 100 | > 100 | > 100 | – | – |
| C#CCN(C(=O)C(F)(F)F)C(/C=C\C(=O)OC)(C(=O)OCC)C(=O)OCC | – | > 100 | – | > 100 | – | > 100 µM | – | > 100 | – | – | – | > 100 | – | – | > 100 | > 100 | > 100 | > 100 | – | – |
| S=c1[nH]nc(Cn2c3ccc(Br)cc3c3nc4ccccc4nc32)o1 | – | – | – | > 100 | – | – | – | > 100 | – | > 100 | – | > 100 | – | > 100 | > 100 | > 100 | > 100 | > 100 | – | – |
| CN(CC(=O)Nc1ccccc1C(=O)O)c1ccccc1 | – | > 100 | – | > 100 | – | > 100 µM | – | – | – | > 100 | – | > 100 | – | > 100 | > 100 | > 100 | > 100 | > 100 | – | – |
| CC(=O)Nc1ccc2c(c1)C(=O)c1ccccc1-2 | – | – | – | – | – | > 100 µM | – | – | – | – | – | – | – | > 100 | > 100 | – | > 100 | > 100 | – | – |
| Cc1nn(C(=O)Cc2ccccc2)c2c1C(c1ccc(/C=C/c3ccccc3)cc1)SC(N)=N2 (stereo not drawn) | – | > 100 | – | > 100 | – | > 100 µM | – | – | – | > 100 | – | > 100 | – | > 100 | > 100 | > 100 | > 100 | > 100 | – | – |
| O=[N+]([O-])c1ccc(N/N=C\c2cc(Br)ccc2O)nc1 | 2.13 µM | 8.93 | 4.95 µM | > 100 | 0.314 µM | > 100 µM | – | – | 0.459 | 2.35 | 0.489 µM | > 100 | – | – | – | – | 19.8 | 4.87 | 1.05 µM | 1.22 µM |
| CCOC(OCC)(OCC)C(Br)CC (stereo not drawn) | – | – | – | – | – | > 100 µM | – | – | – | > 100 | – | – | – | > 100 | 37.8 | – | > 100 | > 100 | – | – |
